Legend:
[1] = system: IL-2 stimulated STAT5 phosphorylation in Tall-1 human T cell line (JAK3); experiment: Cellular JAK3 potency assay: inhibition of IL-2 stimulated pSTAT5 in Tall-1 T cells; assay type: cell-based; details: IL-2 stimulated pSTAT5, Tall-1 T cells
Procedure: Assay 2: Cellular JAK3 Potency Assay: Inhibition of IL-2 Stimulated pSTAT5 in Tall-1 T Cells
The potency of test compounds for inhibition of interleukin-2 (IL-2) stimulated STAT5 phosphorylation was measured in the Tall-1 human T cell line (DSMZ) using AlphaLisa. Because IL-2 signals through JAK3, this assay provides a measure of JAK3 cellular potency.
Phosphorylated STAT5 was measured via the AlphaLISA SureFire Ultra pSTAT5 (Tyr694/699) kit (PerkinElmer).
Human T cells from the Tall-1 cell line were cultured in a 37° C., 5% CO2 humidified incubator in RPMI (Life Technologies) supplemented with 15% Heat Inactivated Fetal Bovine Serum (FBS, Life Technologies), 2 mM Glutamax (Life Technologies), 25 mM HEPES (Life Technologies) and 1× Pen/Strep (Life Technologies). Compounds were serially diluted in DMSO and dispensed acoustically to empty wells. Assay media (phenol red-free DMEM (Life Technologies) supplemented with 10% FBS (ATCC)) was dispensed (4 μL/well) and plates shaken at 900 rpm for 10 inns. Cells were seeded at 45,000 cells/well in assay media (4 μL/well), and incubated at 37° C., 5% CO2 for 1 hour, followed by the addition of IL-2 (R&D Systems; final concentration 300 ng/ml) in pre-warmed assay media (4 μL) for 30 minutes. After cytokine stimulation, cells were lysed with 6 ul of 3× AlphaLisa Lysis Buffer (PerkinElmer) containing 1× PhosStop and Complete tablets (Roche). The lysate was shaken at 900 rpm for 10 minutes at room temperature (RT). Phosphorylated STAT5 was measured via the pSTAT5 AlphaLisa kit (PerkinElmer). Freshly prepared acceptor bead mixture was dispensed onto lysate (5 μL) under green filtered <100 lux light. Plates were shaken at 900 rpm for 2 mins, briefly spun down, and incubated for 2 hrs at RT in the dark. Donor beads were dispensed (5 μL) under green filtered <100 lux light. Plates were shaken at 900 rpm for 2 minutes, briefly spun down, and incubated overnight at RT in the dark. Luminescence was measured with excitation at 689 nm and emission at 570 nm using an EnVision plate reader (PerkinElmer) under green filtered <100 lux light.
To determine the inhibitory potency of test compounds in response to IL-2, the average emission intensity of beads bound to pSTAT5 was measured in a human T cell line. IC50 values were determined from analysis of the inhibition curves of signal intensity versus compound concentration. Data are expressed as pIC50 (negative decadic logarithm IC50) values (mean standard deviation).

[2] = target: JAK3 (Homo sapiens (Human), UniProt P52333); experiment: Biochemical JAK3 kinase assay (LanthaScreen); details: for JAK3 (pKi)-JAK1 (pKi): selectivity JAK3 over JAK1, difference of pKi
Procedure: (§1) Assay 1: Biochemical JAK and Tyk2 Kinase Assays
(§2) A panel of four LanthaScreen JAK biochemical assays (JAK1, 2, 3 and Tyk2) were carried in a common kinase reaction buffer (50 mM HEPES, pH 7.5, 0.01% Brij-35, 10 mM MgCl2, and 1 mM EGTA). Recombinant GST-tagged JAK enzymes and a GFP-tagged STAT1 peptide substrate were obtained from Life Technologies.
(§3) Serially or discretely diluted compounds were pre-incubated with each of the four JAK enzymes and the substrate in white 384-well microplates (Corning) at ambient temperature for 1 h. ATP was subsequently added to initiate the kinase reactions in 10 μL total volume, with 1% DMSO. […] Kinase reactions were allowed to proceed for 1 hour at ambient temperature before a 10 μL preparation of EDTA (10 mM final concentration) and Tb-anti-pSTAT1 (pTyr701) antibody (Life Technologies, 2 nM final concentration) in TR-FRET dilution buffer (Life Technologies) was added. The plates were allowed to incubate at ambient temperature for 1 h before being read on the EnVision reader (Perkin Elmer). Emission ratio signals (520 nm/495 nm) were recorded and utilized to calculate the percent inhibition values based on DMSO and background controls.
(§4) For dose-response analysis, percent inhibition data were plotted vs. compound concentrations, and IC50 values were determined from a 4-parameter robust fit model with the Prism software (GraphPad Software). Results were expressed as pIC50 (negative logarithm of IC50) and subsequently converted to pKi (negative logarithm of dissociation constant, Ki) using the Cheng-Prusoff equation.

[3] = target: Tyk2 (Homo sapiens (Human), UniProt P29597); experiment: Biochemical Tyk2 kinase assay (LanthaScreen)
Procedure: as §1, §2, §3, §4

[4] = target: JAK1 (Homo sapiens (Human), UniProt P23458); experiment: Biochemical JAK1 kinase assay (LanthaScreen)
Procedure: as §1, §2, §3, §4

[5] = target: JAK2 (Homo sapiens (Human), UniProt O60674); experiment: Biochemical JAK2 kinase assay (LanthaScreen)
Procedure: as §1, §2, §3, §4

Chain of Tyk2 (P29597 whole entry): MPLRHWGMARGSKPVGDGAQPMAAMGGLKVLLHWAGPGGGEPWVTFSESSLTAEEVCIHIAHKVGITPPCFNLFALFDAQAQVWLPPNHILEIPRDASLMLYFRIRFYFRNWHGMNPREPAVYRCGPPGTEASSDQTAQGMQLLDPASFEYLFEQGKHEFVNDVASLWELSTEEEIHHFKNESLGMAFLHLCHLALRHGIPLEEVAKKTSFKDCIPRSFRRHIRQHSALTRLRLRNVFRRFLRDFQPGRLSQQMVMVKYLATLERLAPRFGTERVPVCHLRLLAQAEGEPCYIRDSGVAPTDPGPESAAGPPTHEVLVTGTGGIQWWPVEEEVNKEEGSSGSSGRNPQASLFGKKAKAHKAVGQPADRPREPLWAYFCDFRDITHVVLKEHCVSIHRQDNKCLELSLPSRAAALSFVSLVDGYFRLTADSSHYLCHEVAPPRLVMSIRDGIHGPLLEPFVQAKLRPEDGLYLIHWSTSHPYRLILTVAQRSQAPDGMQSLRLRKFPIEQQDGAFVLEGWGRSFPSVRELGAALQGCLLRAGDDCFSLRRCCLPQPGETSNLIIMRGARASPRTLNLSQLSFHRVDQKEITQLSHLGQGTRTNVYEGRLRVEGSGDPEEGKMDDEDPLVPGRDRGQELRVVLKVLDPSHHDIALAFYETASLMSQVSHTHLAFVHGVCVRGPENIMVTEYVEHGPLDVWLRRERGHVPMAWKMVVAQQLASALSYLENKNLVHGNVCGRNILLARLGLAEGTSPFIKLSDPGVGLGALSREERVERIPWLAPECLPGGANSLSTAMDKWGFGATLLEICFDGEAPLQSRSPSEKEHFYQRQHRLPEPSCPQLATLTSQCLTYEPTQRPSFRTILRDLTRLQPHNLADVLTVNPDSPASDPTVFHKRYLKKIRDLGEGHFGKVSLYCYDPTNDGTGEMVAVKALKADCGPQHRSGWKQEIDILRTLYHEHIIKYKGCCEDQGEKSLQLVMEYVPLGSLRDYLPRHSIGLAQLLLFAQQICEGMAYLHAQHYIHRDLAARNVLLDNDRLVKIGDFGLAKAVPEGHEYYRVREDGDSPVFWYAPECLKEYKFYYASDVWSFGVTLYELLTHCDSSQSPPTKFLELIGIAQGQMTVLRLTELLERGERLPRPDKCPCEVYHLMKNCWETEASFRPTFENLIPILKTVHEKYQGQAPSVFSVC
Chain of JAK1 (P23458 whole entry): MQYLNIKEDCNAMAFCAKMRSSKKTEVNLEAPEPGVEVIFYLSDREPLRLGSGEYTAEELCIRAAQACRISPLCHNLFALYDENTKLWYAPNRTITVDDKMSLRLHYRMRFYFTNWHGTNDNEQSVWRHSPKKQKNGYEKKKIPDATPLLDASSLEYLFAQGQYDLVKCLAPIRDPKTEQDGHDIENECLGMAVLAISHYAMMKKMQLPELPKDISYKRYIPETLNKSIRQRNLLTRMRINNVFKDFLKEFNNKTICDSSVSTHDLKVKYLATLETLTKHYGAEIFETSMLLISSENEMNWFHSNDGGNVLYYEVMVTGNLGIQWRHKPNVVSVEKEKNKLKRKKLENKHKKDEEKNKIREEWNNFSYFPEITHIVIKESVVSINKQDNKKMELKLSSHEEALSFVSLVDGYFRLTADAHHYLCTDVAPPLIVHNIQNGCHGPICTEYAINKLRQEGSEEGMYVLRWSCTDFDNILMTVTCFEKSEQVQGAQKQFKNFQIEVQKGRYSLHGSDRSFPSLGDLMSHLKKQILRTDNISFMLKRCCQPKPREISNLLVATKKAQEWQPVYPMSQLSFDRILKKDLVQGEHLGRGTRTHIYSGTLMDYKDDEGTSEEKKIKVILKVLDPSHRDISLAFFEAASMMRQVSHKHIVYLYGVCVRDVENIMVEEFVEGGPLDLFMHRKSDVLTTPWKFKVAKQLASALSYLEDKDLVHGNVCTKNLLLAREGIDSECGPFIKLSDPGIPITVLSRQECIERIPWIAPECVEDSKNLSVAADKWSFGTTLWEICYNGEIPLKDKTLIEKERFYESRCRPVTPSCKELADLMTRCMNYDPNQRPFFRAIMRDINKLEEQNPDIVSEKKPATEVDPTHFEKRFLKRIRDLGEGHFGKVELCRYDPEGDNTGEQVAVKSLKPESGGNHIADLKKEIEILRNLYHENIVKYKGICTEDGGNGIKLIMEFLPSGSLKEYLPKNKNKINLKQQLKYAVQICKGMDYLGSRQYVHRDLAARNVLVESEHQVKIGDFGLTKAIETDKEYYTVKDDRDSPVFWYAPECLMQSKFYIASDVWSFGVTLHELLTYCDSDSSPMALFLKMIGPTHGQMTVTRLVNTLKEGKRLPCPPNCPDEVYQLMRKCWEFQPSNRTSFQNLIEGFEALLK
Chain of JAK2 (O60674 whole entry): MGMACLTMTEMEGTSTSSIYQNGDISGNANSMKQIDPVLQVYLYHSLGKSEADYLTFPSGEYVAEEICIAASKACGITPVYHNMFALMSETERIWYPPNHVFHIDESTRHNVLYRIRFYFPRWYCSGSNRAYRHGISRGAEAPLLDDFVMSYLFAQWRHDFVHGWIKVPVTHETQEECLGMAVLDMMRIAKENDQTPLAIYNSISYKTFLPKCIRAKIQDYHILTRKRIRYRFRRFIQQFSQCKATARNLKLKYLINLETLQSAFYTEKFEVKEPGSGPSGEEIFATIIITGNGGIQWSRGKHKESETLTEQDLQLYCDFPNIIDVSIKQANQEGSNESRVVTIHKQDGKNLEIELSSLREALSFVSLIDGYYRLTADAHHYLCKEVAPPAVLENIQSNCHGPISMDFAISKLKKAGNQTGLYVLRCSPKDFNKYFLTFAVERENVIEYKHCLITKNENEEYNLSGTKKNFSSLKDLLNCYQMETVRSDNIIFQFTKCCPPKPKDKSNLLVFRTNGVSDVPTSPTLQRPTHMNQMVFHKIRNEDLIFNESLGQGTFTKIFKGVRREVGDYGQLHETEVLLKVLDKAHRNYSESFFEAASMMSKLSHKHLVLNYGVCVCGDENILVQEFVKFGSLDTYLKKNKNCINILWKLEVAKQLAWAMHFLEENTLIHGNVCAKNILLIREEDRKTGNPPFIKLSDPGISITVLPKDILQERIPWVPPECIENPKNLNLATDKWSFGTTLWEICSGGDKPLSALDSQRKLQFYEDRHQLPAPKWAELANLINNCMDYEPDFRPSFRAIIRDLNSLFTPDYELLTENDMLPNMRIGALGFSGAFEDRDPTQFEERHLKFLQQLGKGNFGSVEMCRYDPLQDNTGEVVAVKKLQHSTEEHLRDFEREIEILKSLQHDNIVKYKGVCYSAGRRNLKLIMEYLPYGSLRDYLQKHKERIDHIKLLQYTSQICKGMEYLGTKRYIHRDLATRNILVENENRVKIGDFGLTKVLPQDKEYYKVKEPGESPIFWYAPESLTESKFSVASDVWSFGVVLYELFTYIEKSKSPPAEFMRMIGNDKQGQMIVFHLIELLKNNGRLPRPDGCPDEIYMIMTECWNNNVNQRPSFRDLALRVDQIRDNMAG
Chain of JAK3 (P52333 whole entry): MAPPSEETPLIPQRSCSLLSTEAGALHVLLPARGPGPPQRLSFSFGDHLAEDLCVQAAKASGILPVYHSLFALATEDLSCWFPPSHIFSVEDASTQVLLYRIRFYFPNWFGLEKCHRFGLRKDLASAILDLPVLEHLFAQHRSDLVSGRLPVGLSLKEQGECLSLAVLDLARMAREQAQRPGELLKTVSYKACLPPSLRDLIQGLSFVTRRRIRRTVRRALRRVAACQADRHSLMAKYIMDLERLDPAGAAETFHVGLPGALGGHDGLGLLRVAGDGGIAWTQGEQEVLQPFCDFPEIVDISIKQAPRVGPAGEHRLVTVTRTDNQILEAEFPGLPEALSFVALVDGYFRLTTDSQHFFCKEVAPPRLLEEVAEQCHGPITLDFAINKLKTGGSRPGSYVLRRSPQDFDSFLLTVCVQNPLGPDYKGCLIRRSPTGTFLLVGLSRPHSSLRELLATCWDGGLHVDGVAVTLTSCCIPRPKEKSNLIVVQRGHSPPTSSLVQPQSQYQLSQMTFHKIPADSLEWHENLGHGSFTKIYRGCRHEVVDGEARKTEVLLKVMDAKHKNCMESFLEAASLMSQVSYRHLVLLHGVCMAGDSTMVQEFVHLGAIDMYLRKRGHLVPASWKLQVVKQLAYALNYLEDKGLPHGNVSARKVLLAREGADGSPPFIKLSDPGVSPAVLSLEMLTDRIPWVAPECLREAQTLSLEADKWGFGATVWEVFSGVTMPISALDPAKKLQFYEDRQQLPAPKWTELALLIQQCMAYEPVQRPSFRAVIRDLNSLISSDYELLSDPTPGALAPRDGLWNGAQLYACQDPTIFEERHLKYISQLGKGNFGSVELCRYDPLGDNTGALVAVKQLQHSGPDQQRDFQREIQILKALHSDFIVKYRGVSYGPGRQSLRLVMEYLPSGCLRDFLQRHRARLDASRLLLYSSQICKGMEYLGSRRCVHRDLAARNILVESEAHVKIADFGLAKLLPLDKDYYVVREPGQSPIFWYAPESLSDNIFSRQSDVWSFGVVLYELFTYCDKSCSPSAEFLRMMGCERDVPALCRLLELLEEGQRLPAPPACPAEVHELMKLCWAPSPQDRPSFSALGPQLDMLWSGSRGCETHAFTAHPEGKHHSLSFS

CN(C)C/C=C/C(=O)N1CC(CCn2c(=O)ccc3cnc(Nc4ccc(N5CCN(C)CC5)cn4)cc32)C1 [Example 11, (E)-1-(2-(1-(4-(dimethylamino)but-2-enoyl)azetidin-3-yl)ethyl)-7-((5-(4-methylpiperazin-1-yl)pyridin-2-yl)amino)-1,6-naphthyridin-2(1H)-one]
Tall-1 (pIC50) [1]: B (B represents a pC50 value between 6.7 (included) and 7.5 (IC50 between 200 nM and 32 nM))
JAK 3 (pKi) [2]: B (B represents pKi value between 9 and 10 (Ki between 1 nM and 0.1 nM))
JAK3 (pKi)-JAK1 (pKi) [2]: A (A represents a value of 3 or above)
Tyk 2 (pKi) [3]: E (E represents a pKi value of 7 or below (Ki of 100 nM or above))
JAK 1 (pKi) [4]: E (E represents a pKi value of 7 or below (Ki of 100 nM or above))
JAK 2 (pKi) [5]: E (E represents a pKi value of 7 or below (Ki of 100 nM or above))

C=CC(=O)N1CC(CCn2c(=O)ccc3cnc(Nc4ccc(N5CCN(C)CC5)c(Cl)c4)nc32)C1 [Example 17]
Tall-1 (pIC50) [1]: B (B represents a pC50 value between 6.7 (included) and 7.5 (IC50 between 200 nM and 32 nM))
JAK 3 (pKi) [2]: B (B represents pKi value between 9 and 10 (Ki between 1 nM and 0.1 nM))
JAK3 (pKi)-JAK1 (pKi) [2]: A (A represents a value of 3 or above)
Tyk 2 (pKi) [3]: E (E represents a pKi value of 7 or below (Ki of 100 nM or above))
JAK 1 (pKi) [4]: E (E represents a pKi value of 7 or below (Ki of 100 nM or above))
JAK 2 (pKi) [5]: E (E represents a pKi value of 7 or below (Ki of 100 nM or above))

C=CC(=O)N1CC(CCn2c(=O)ccc3cnc(Nc4ccc(N5CCOCC5)c(F)c4)nc32)C1 [Example 23]
Tall-1 (pIC50) [1]: B (B represents a pC50 value between 6.7 (included) and 7.5 (IC50 between 200 nM and 32 nM))
JAK 3 (pKi) [2]: B (B represents pKi value between 9 and 10 (Ki between 1 nM and 0.1 nM))
JAK3 (pKi)-JAK1 (pKi) [2]: A (A represents a value of 3 or above)
Tyk 2 (pKi) [3]: E (E represents a pKi value of 7 or below (Ki of 100 nM or above))
JAK 1 (pKi) [4]: E (E represents a pKi value of 7 or below (Ki of 100 nM or above))
JAK 2 (pKi) [5]: E (E represents a pKi value of 7 or below (Ki of 100 nM or above))

C=CC(=O)N1CCN(CCn2c(=O)ccc3cnc(Nc4cnn(C)c4)nc32)C(C)(C)C1 [Example 33]
Tall-1 (pIC50) [1]: B (B represents a pC50 value between 6.7 (included) and 7.5 (IC50 between 200 nM and 32 nM))
JAK 3 (pKi) [2]: A (A represents a pKi value≥10 (Ki≤0.1 nM))
JAK3 (pKi)-JAK1 (pKi) [2]: A (A represents a value of 3 or above)
Tyk 2 (pKi) [3]: E (E represents a pKi value of 7 or below (Ki of 100 nM or above))
JAK 1 (pKi) [4]: E (E represents a pKi value of 7 or below (Ki of 100 nM or above))
JAK 2 (pKi) [5]: E (E represents a pKi value of 7 or below (Ki of 100 nM or above))

C=CC(=O)N1CC(CCn2c(=O)ccc3cnc(Nc4cnn(-c5ccccc5)c4)nc32)C1 [Example 34]
Tall-1 (pIC50) [1]: B (B represents a pC50 value between 6.7 (included) and 7.5 (IC50 between 200 nM and 32 nM))
JAK 3 (pKi) [2]: B (B represents pKi value between 9 and 10 (Ki between 1 nM and 0.1 nM))
JAK3 (pKi)-JAK1 (pKi) [2]: A (A represents a value of 3 or above)
Tyk 2 (pKi) [3]: E (E represents a pKi value of 7 or below (Ki of 100 nM or above))
JAK 1 (pKi) [4]: E (E represents a pKi value of 7 or below (Ki of 100 nM or above))
JAK 2 (pKi) [5]: E (E represents a pKi value of 7 or below (Ki of 100 nM or above))

C=CC(=O)N1CCN(CCn2c(=O)ccc3cnc(Nc4ccc(N5CCN(C)CC5)nc4)nc32)CC1 [Example 37]
Tall-1 (pIC50) [1]: B (B represents a pC50 value between 6.7 (included) and 7.5 (IC50 between 200 nM and 32 nM))
JAK 3 (pKi) [2]: B (B represents pKi value between 9 and 10 (Ki between 1 nM and 0.1 nM))
JAK3 (pKi)-JAK1 (pKi) [2]: A (A represents a value of 3 or above)
Tyk 2 (pKi) [3]: E (E represents a pKi value of 7 or below (Ki of 100 nM or above))
JAK 1 (pKi) [4]: E (E represents a pKi value of 7 or below (Ki of 100 nM or above))
JAK 2 (pKi) [5]: E (E represents a pKi value of 7 or below (Ki of 100 nM or above))

C=CC(=O)N1CCN(CCn2c(=O)ccc3cnc(Nc4ccc(N5CCN(C)CC5)c(F)c4)nc32)CC1 [Example 39]
Tall-1 (pIC50) [1]: B (B represents a pC50 value between 6.7 (included) and 7.5 (IC50 between 200 nM and 32 nM))
JAK 3 (pKi) [2]: B (B represents pKi value between 9 and 10 (Ki between 1 nM and 0.1 nM))
JAK3 (pKi)-JAK1 (pKi) [2]: A (A represents a value of 3 or above)
Tyk 2 (pKi) [3]: E (E represents a pKi value of 7 or below (Ki of 100 nM or above))
JAK 1 (pKi) [4]: E (E represents a pKi value of 7 or below (Ki of 100 nM or above))
JAK 2 (pKi) [5]: E (E represents a pKi value of 7 or below (Ki of 100 nM or above))

C=CC(=O)N1CC(CCn2c(=O)ccc3cnc(Nc4ccc(N5CCN(C)CC5)cc4)nc32)C1 [Example 45]
Tall-1 (pIC50) [1]: B (B represents a pC50 value between 6.7 (included) and 7.5 (IC50 between 200 nM and 32 nM))
JAK 3 (pKi) [2]: B (B represents pKi value between 9 and 10 (Ki between 1 nM and 0.1 nM))
JAK3 (pKi)-JAK1 (pKi) [2]: A (A represents a value of 3 or above)
Tyk 2 (pKi) [3]: E (E represents a pKi value of 7 or below (Ki of 100 nM or above))
JAK 1 (pKi) [4]: E (E represents a pKi value of 7 or below (Ki of 100 nM or above))
JAK 2 (pKi) [5]: E (E represents a pKi value of 7 or below (Ki of 100 nM or above))

C=CC(=O)N1CC(CCn2c(=O)ccc3cnc(Nc4ccc(CN5CCN(C)CC5)cc4)nc32)C1 [Example 46]
Tall-1 (pIC50) [1]: B (B represents a pC50 value between 6.7 (included) and 7.5 (IC50 between 200 nM and 32 nM))
JAK 3 (pKi) [2]: B (B represents pKi value between 9 and 10 (Ki between 1 nM and 0.1 nM))
JAK3 (pKi)-JAK1 (pKi) [2]: A (A represents a value of 3 or above)
Tyk 2 (pKi) [3]: E (E represents a pKi value of 7 or below (Ki of 100 nM or above))
JAK 1 (pKi) [4]: E (E represents a pKi value of 7 or below (Ki of 100 nM or above))
JAK 2 (pKi) [5]: E (E represents a pKi value of 7 or below (Ki of 100 nM or above))

C=CC(=O)N1CC(CCn2c(=O)ccc3cnc(Nc4ccc(N5CCN(C)CC5)c(F)c4)nc32)C1 [Example 48]
Tall-1 (pIC50) [1]: B (B represents a pC50 value between 6.7 (included) and 7.5 (IC50 between 200 nM and 32 nM))
JAK 3 (pKi) [2]: B (B represents pKi value between 9 and 10 (Ki between 1 nM and 0.1 nM))
JAK3 (pKi)-JAK1 (pKi) [2]: A (A represents a value of 3 or above)
Tyk 2 (pKi) [3]: E (E represents a pKi value of 7 or below (Ki of 100 nM or above))
JAK 1 (pKi) [4]: E (E represents a pKi value of 7 or below (Ki of 100 nM or above))
JAK 2 (pKi) [5]: E (E represents a pKi value of 7 or below (Ki of 100 nM or above))

C=CC(=O)N1CCN(CCn2c(=O)ccc3cnc(Nc4ccc(N5CCN(C)CC5)c(C)c4)nc32)CC1 [Example 49]
Tall-1 (pIC50) [1]: B (B represents a pC50 value between 6.7 (included) and 7.5 (IC50 between 200 nM and 32 nM))
JAK 3 (pKi) [2]: B (B represents pKi value between 9 and 10 (Ki between 1 nM and 0.1 nM))
JAK3 (pKi)-JAK1 (pKi) [2]: A (A represents a value of 3 or above)
Tyk 2 (pKi) [3]: E (E represents a pKi value of 7 or below (Ki of 100 nM or above))
JAK 1 (pKi) [4]: E (E represents a pKi value of 7 or below (Ki of 100 nM or above))
JAK 2 (pKi) [5]: E (E represents a pKi value of 7 or below (Ki of 100 nM or above))
